Patent publication US8507714B2, “7-membered ring compound and method of production and pharmaceutical application thereof” (Daiichi Sankyo Company, Limited, priority 2004, dated 2013)

Assays:
[1] = system: DNFB-induced dermatitis in C3H/HeN mice; details: 10 mg/kg orally once a day; 24 hours after DNFB application at fifth application; female C3H/HeN mice
Protocol: Effect of Test Compounds on Dermatitis Model Induced by Repeated Application of Hapten
As a control group, acetone:olive oil (1:3) was applied by the same protocol. Ear thickness was measured at every week before DNFB application and 24, 48 and 72 hours after DNFB application by using microgauge (Mitutoyo), and ear edema was evaluated by the increase in ear thickness compared to the ear thickness before the first DNFB application. […] The test compound was suspended in 0.5% hydroxypropylcellulose in distilled water (hereinafter referred to as “0.5% HPC-distilled water”) and was administered orally at doses of 2 and 10 mg/kg once a day, every day from just before the first application of hapten to the end of the experiment. Further, as a control, 0.5% HPC-distilled water instead of the test compound was administered by the same methods. The number of mice used in this experiment was seven per group.

Compound	melting point	inhibition rate of the skin reaction [1] [%]
COc1ccc(F)cc1/C=C1\CNC(=O)CN(S(=O)(=O)c2ccc(Cl)s2)C1=O	150 to 153 °C	–
CC[C@@H](NC(=O)N1CC(=O)NC[C@@H](Cc2cc(Cl)ccc2OC)C1=O)c1cccc(C(=O)[O-])c1.[Na+]	161 to 163 °C	–
O=C(CN1CC(Cc2ccccc2)C(=O)N(S(=O)(=O)c2ccc(Cl)cc2)CC1=O)NCc1ccccc1 (centres unmarked)	187 to 190 °C	–
Cc1cccc(CC2CNC(=O)CN(S(=O)(=O)c3ccc(Cl)cc3)C2=O)c1 (centres unmarked)	64 to 66 °C	–
N#Cc1ccc(S(=O)(=O)N2CC(=O)NC/C(=C\c3ccccc3)C2=O)cc1	239 °C (dec.)	–
COc1ccc(Cl)cc1C[C@H]1CNC(=O)[C@@H](C)N(S(=O)(=O)c2ccc(Cl)cc2)C1=O	78 to 80 °C	–
COc1ccc(Cl)cc1CC1CNC(=O)CN(S(=O)(=O)c2ccc(Cl)cc2)C1=O (centres unmarked) [Compound 29, 6-(5-chloro-2-methoxybenzyl)-4-[(4-chlorophenyl)sulfonyl]-1,4-diazepan-2,5-dione]	110 to 112 °C	31.0
COc1ccc(Cl)cc1CC1CNC(=O)CN(S(=O)(=O)c2ccc(Cl)c(N)c2)C1=O.Cl (centres unmarked) [Compound 90, 4-[(3-amino-4-chlorophenyl)sulfonyl]-6-(5-chloro-2-methoxybenzyl)-1,4-diazepan-2,5-dione Hydrochloride]	–	25.1
CC[C@@H](NC(=O)N1CC(=O)NC[C@@H](Cc2cc(Cl)ccc2OC)C1=O)c1cccc(C(=O)O)c1 [Compound 91, 3-[(1R)-1-({[(6R)-6-(5-chloro-2-methoxybenzyl)-3,7-dioxo-1,4-diazepan-1-yl]carbonyl}amino)propyl]benzoic Acid]	121 to 123 °C	26.1

Continued, in another order:

melting point	Compound	inhibition rate of the skin reaction [1] [%]
73 to 76 °C	COC(=O)C[C@@H]1C(=O)NC[C@H](Cc2cc(F)ccc2OC)C(=O)N1S(=O)(=O)c1ccc(Cl)cc1	–
141 to 142 °C	CC[C@@H](NC(=O)N1CC(=O)NCC(Cc2cc(Cl)ccc2OC)C1=O)C(=O)Nc1nnn[nH]1 (some centres unmarked)	–
132 to 134 °C	CC[C@@H](NC(=O)N1CC(=O)NCC(Cc2cc(Cl)ccc2OC)C1=O)C(=O)Nc1ccc(C)c(C(=O)O)c1 (some centres unmarked)	–
138 to 140 °C	COC(=O)COc1ccc(Cl)cc1CC1CNC(=O)CN(S(=O)(=O)c2ccc(Cl)cc2)C1=O (centres unmarked)	–
130 to 131 °C	COc1ccc(Cl)cc1CC1CNC(=O)CN(C(=O)Nc2cccc(NC(C)=O)c2)C1=O (centres unmarked)	–
80 to 90 °C	COc1cc(Cl)c(F)cc1CC1CNC(=O)CN(S(=O)(=O)c2ccc(Cl)cc2)C1=O (centres unmarked)	–
